Laboratory results published in the supplement of paper PMC11665569.

Key:
KYSE410 = assay: relative viability (fraction of vehicle control); higher = more viable / less inhibited; details: treatment time: 5 days
Method: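 CCK-8 viability of KYSE410 cells transfected with control, YAP/TAZ or TEAD1-4 siRNAs and treated with KRAS G12C inhibitors for 5 days. Values are normalised to vehicle control.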

H2030 = assay: as above; details: treatment time: 5 days
Method: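 CCK-8 viability of H2030 cells transfected with control, YAP/TAZ or TEAD1-4 siRNAs and treated with KRAS G12C inhibitors for 5 days. Values are normalised to vehicle control.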

C=C(F)C(=O)N1CCN(c2nc(OC[C@@H]3CCCN3C)nc3c2CCN(c2cccc4cccc(Cl)c24)C3)C[C@@H]1CC#N [MRTX849]
relative viability
Details | H2030 | KYSE410
log10 concentration (uM): 0, siRNA knockdown: TEAD1-4 siRNA 1 | 0.333 | –
log10 concentration (uM): 0, siRNA knockdown: TEAD1-4 siRNA 2 | 0.289 | –
log10 concentration (uM): 0, siRNA knockdown: YAP/TAZ siRNA 1 | 0.531 | –
log10 concentration (uM): 0, siRNA knockdown: YAP/TAZ siRNA 2 | 0.441 | –
log10 concentration (uM): 0, siRNA knockdown: negative control siRNA | 0.768 | –
log10 concentration (uM): 0.69897, siRNA knockdown: TEAD1-4 siRNA 1 | 0.0176 | –
log10 concentration (uM): 0.69897, siRNA knockdown: TEAD1-4 siRNA 2 | 0.0364 | –
log10 concentration (uM): 0.69897, siRNA knockdown: YAP/TAZ siRNA 1 | 0.0187 | –
log10 concentration (uM): 0.69897, siRNA knockdown: YAP/TAZ siRNA 2 | 0.0145 | –
log10 concentration (uM): 0.69897, siRNA knockdown: negative control siRNA | 0.162 | –
log10 concentration (uM): -0.30103, siRNA knockdown: TEAD1-4 siRNA 1 | 0.413 | –
log10 concentration (uM): -0.30103, siRNA knockdown: TEAD1-4 siRNA 2 | 0.358 | –
log10 concentration (uM): -0.30103, siRNA knockdown: YAP/TAZ siRNA 1 | 0.458 | –
log10 concentration (uM): -0.30103, siRNA knockdown: YAP/TAZ siRNA 2 | 0.496 | –
log10 concentration (uM): -0.30103, siRNA knockdown: negative control siRNA | 0.814 | –
log10 concentration (uM): -1, siRNA knockdown: TEAD1-4 siRNA 1 | 0.468 | –
log10 concentration (uM): -1, siRNA knockdown: TEAD1-4 siRNA 2 | 0.437 | –
log10 concentration (uM): -1, siRNA knockdown: YAP/TAZ siRNA 1 | 0.409 | –
log10 concentration (uM): -1, siRNA knockdown: YAP/TAZ siRNA 2 | 0.238 | –
log10 concentration (uM): -1, siRNA knockdown: negative control siRNA | 0.814 | –
log10 concentration (uM): -1.30103, siRNA knockdown: TEAD1-4 siRNA 1 | 0.473 | –
log10 concentration (uM): -1.30103, siRNA knockdown: TEAD1-4 siRNA 2 | 0.428 | –
log10 concentration (uM): -1.30103, siRNA knockdown: YAP/TAZ siRNA 1 | 0.625 | –
log10 concentration (uM): -1.30103, siRNA knockdown: YAP/TAZ siRNA 2 | 0.322 | –
log10 concentration (uM): -1.30103, siRNA knockdown: negative control siRNA | 0.795 | –
log10 concentration (uM): -2, siRNA knockdown: TEAD1-4 siRNA 1 | 0.676 | 0.871
log10 concentration (uM): -2, siRNA knockdown: TEAD1-4 siRNA 2 | 0.707 | 0.648
log10 concentration (uM): -2, siRNA knockdown: YAP/TAZ siRNA 1 | 0.901 | 0.767
log10 concentration (uM): -2, siRNA knockdown: YAP/TAZ siRNA 2 | 0.521 | 0.735
log10 concentration (uM): -2, siRNA knockdown: negative control siRNA | 0.836 | 0.942
log10 concentration (uM): -2.30103, siRNA knockdown: TEAD1-4 siRNA 1 | 0.774 | 0.873
log10 concentration (uM): -2.30103, siRNA knockdown: TEAD1-4 siRNA 2 | 0.625 | 0.793
log10 concentration (uM): -2.30103, siRNA knockdown: YAP/TAZ siRNA 1 | 0.958 | 0.855
log10 concentration (uM): -2.30103, siRNA knockdown: YAP/TAZ siRNA 2 | 0.707 | 0.868
log10 concentration (uM): -2.30103, siRNA knockdown: negative control siRNA | 0.836 | 0.937
log10 concentration (uM): -3, siRNA knockdown: TEAD1-4 siRNA 1 | 1.02 | 0.888
log10 concentration (uM): -3, siRNA knockdown: TEAD1-4 siRNA 2 | 0.844 | 0.869
log10 concentration (uM): -3, siRNA knockdown: YAP/TAZ siRNA 1 | 1.07 | 0.936
log10 concentration (uM): -3, siRNA knockdown: YAP/TAZ siRNA 2 | 0.756 | 0.915
log10 concentration (uM): -3, siRNA knockdown: negative control siRNA | 0.909 | 0.981
log10 concentration (uM): -4, siRNA knockdown: TEAD1-4 siRNA 1 | 1.14 | 1.04
log10 concentration (uM): -4, siRNA knockdown: TEAD1-4 siRNA 2 | 0.984 | 0.951
log10 concentration (uM): -4, siRNA knockdown: YAP/TAZ siRNA 1 | 1.17 | 0.946
log10 concentration (uM): -4, siRNA knockdown: YAP/TAZ siRNA 2 | 0.911 | 1.01
log10 concentration (uM): -4, siRNA knockdown: negative control siRNA | 0.97 | 0.987
